Laboratory results published in patent US8664220B2, “Polycyclic compounds as lysophosphatidic acid receptor antagonists” (Amira Pharmaceuticals, Inc., priority 2009, dated 2014).

The molecules below were run against T1, human LPA1 (Homo sapiens, UniProt Q92633) (assay: LPA1 calcium flux assay). Details: human LPA1 expressing CHO cells, stimulated with 10 nM LPA; read-out: HLPA1 Ca Flux IC50.
T1 construct: the full-length cDNA for human LPA1 was obtained by PCR of the reverse transcription reaction; expressed in transfected cells
Type: cell-based
Method in brief: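 CHO cells stably expressing human LPA1, serum-starved overnight and loaded with Calcium 4 dye in HBSS/20 mM Hepes/0.3% fatty-acid-free HSA, 1 h at 37 °C. Compounds pre-incubated 30 min at room temperature, then 10 nM LPA added; intracellular Ca2+ flux measured and IC50 from titration curves.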

T1 sequence (Q92633 whole entry): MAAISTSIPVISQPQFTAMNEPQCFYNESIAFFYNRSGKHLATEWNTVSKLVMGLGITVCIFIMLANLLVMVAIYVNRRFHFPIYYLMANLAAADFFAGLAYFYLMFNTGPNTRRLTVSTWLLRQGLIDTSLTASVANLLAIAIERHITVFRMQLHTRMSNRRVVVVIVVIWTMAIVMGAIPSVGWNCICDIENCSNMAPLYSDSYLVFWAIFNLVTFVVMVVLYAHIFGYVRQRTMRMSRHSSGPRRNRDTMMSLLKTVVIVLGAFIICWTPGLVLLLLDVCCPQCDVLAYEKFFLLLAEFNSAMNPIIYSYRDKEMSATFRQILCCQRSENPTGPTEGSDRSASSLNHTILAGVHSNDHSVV

SMILES	IC50 [nM]
Cc1noc(-c2ccc(-c3ccc(C4(CC(=O)O)CC4)cc3)cc2)c1NC(C)c1cc(-c2ccccc2)no1 (single isomer, unassigned) [Compound 1-43, [1-(4′-{3-Methyl-4-[1-(3-phenyl-isoxazol-5-yl)-ethylamino]-isoxazol-5-yl}-biphenyl-4-yl)-cyclopropyl]-acetic acid]	< 300
Cc1noc(-c2ccc(-c3ccc(C4(C(=O)O)CC4)cc3)cc2)c1Nc1cccc(-c2cccc(C#N)c2)n1 [Compound 1-145, 1-(4′-{4-[6-(3-Cyano-phenyl)-pyridin-2-ylamino]-3-methyl-isoxazol-5-yl}-biphenyl-4-yl)-cyclopropanecarboxylic acid]	< 300
Cc1noc(-c2ccc(-c3ccc(C4(C(=O)O)CC4)cc3)cc2)c1Nc1cccc(Oc2ccccc2)c1 [Compound 1-82, 1-{4′-[3-Methyl-4-(3-phenoxy-phenylamino)-isoxazol-5-yl]-biphenyl-4-yl}-cyclopropanecarboxylic acid]	< 300
Cc1noc(-c2ccc(-c3ccc(C4(C(=O)O)CC4)cc3)cc2)c1Cc1cn(Cc2ccccc2)nn1 [Compound 1-31, 1-{4′-[4-(1-Benzyl-1H-[1,2,3]triazol-4-ylmethyl)-3-methyl-isoxazol-5-yl]-biphenyl-4-yl}-cyclopropanecarboxylic acid]	< 300
Cc1noc(-c2ccc(-c3ccc(C4(C(=O)O)CC4)cc3)cc2)c1Nc1cccc(-c2cccc(F)c2C)n1 [Compound 1-156, 1-(4′-{4-[6-(3-Fluoro-2-methyl-phenyl)-pyridin-2-ylamino]-3-methyl-isoxazol-5-yl}-biphenyl-4-yl)-cyclopropanecarboxylic acid]	< 300
Cc1noc(-c2ccc(-c3ccc(C4(C(=O)O)CC4)cc3)cc2)c1Nc1ccnc(-c2ccccc2Cl)c1 [Compound 1-114, 1-(4′-{4-[2-(2-Chloro-phenyl)-pyridin-4-ylamino]-3-methyl-isoxazol-5-yl}-biphenyl-4-yl)-cyclopropanecarboxylic acid]	< 300
Cc1noc(-c2ccc(-c3ccc(C4(C(=O)O)CC4)cc3)cc2)c1C(O)c1cn(C(C)c2ccccc2)nn1 (stereo not drawn) [Compound 1-55, 1-[4′-(4-{Hydroxy-[1-(1-phenyl-ethyl)-1H-[1,2,3]triazol-4-yl]-methyl}-3-methyl-isoxazol-5-yl)-biphenyl-4-yl]-cyclopropanecarboxylic acid]	< 300
COc1ccc(-c2cccc(Nc3c(C)noc3-c3ccc(-c4ccc(C5(C(=O)O)CC5)cc4)cc3)c2)cn1 [Compound 1-102, 1-(4′-{4-[3-(6-Methoxy-pyridin-3-yl)-phenylamino]-3-methyl-isoxazol-5-yl}-biphenyl-4-yl)-cyclopropanecarboxylic acid]	< 300
Cc1noc(-c2ccc(-c3ccc(C4(C(=O)O)CC4)cc3)cc2)c1Nc1cccc(OC2CCCCC2)n1 [Compound 1-138, 1-{4′-[4-(6-Cyclohexyloxy-pyridin-2-ylamino)-3-methyl-isoxazol-5-yl]-biphenyl-4-yl}-cyclopropanecarboxylic acid]	< 300
Cc1noc(-c2ccc(-c3ccc(C4(C(=O)O)CC4)cc3)cc2)c1Nc1cccc(-c2cccc(Cl)c2)n1 [Compound 1-162, 1-(4′-{4-[6-(3-Chloro-phenyl)-pyridin-2-ylamino]-3-methyl-isoxazol-5-yl}-biphenyl-4-yl)-cyclopropanecarboxylic acid]	< 300
Cc1noc(-c2ccc(-c3ccc(C4(C(=O)O)CC4)cc3)cc2)c1C(O)c1cncc(-c2cccc(C(F)(F)F)c2)c1 (stereo not drawn) [Compound 1-130, 1-[4′-(4-{Hydroxy-[5-(3-trifluoromethyl-phenyl)-pyridin-3-yl]-methyl}-3-methyl-isoxazol-5-yl)-biphenyl-4-yl]-cyclopropanecarboxylic acid]	< 300
Cc1noc(-c2ccc(-c3ccc(C4(C(=O)O)CC4)cc3)cc2)c1Nc1cccc(Cc2ccccc2F)n1 [Compound 1-84, 1-(4′-{4-[6-(2-Fluoro-benzyl)-pyridin-2-ylamino]-3-methyl-isoxazol-5-yl}-biphenyl-4-yl)-cyclopropanecarboxylic acid]	< 300
Cc1noc(-c2ccc(-c3ccc(C4(C(=O)O)CC4)cc3)cc2)c1Nc1cccc(OC2CCC2)n1 [Compound 1-139, 1-{4′-[4-(6-Cyclobutoxy-pyridin-2-ylamino)-3-methyl-isoxazol-5-yl]-biphenyl-4-yl}-cyclopropanecarboxylic acid]	< 300
Cc1noc(-c2ccc(-c3ccc(C4(C(=O)O)CC4)cc3)cc2)c1C1OC1CCc1ccccc1 (stereo not drawn) [Compound 1-4, 1-{4′-[3-Methyl-4-(3-phenethyl-oxiranyl)-isoxazol-5-yl]-biphenyl-4-yl}-cyclopropanecarboxylic acid]	< 300

Further lines, results first:

IC50 [nM]	SMILES
< 300	Cc1noc(-c2ccc(-c3ccc(C4(C(=O)O)CC4)cc3)cc2)c1Cn1ccc(-c2ccccc2)n1 [Compound 1-5, 1-{4′-[3-Methyl-4-(3-phenyl-pyrazol-1-ylmethyl)-isoxazol-5-yl]-biphenyl-4-yl}-cyclopropanecarboxylic acid]
< 300	Cc1noc(-c2ccc(-c3ccc(CCC(=O)O)cc3)cc2)c1Nc1nnc(-c2ccccc2)o1 [Compound 1-81, 3-{4′-[3-Methyl-4-(5-phenyl[1,3,4]oxadiazol-2-ylamino)-isoxazol-5-yl]-biphenyl-4-yl}-propionic acid]
< 300	Cc1noc(-c2ccc(-c3ccc(C4(CC(=O)O)CC4)cc3)cc2)c1C(O)c1nnc(Cc2ccccc2)o1 (stereo not drawn) [Compound 1-60, [1-(4′-{4-[(5-Benzyl-[1,3,4]oxadiazol-2-yl)-hydroxy-methyl]-3-methyl-isoxazol-5-yl}-biphenyl-4-yl)-cyclopropyl]-acetic acid]
< 300	Cc1noc(-c2ccc(-c3ccc(C4(C(=O)O)CC4)cc3)cc2)c1Nc1cccc(OCCc2ccccc2)n1 [Compound 1-141, 1-{4′-[3-Methyl-4-(6-phenethyloxy-pyridin-2-ylamino)-isoxazol-5-yl]-biphenyl-4-yl}-cyclopropanecarboxylic acid]
300 to 1000	Cc1noc(-c2ccc(-c3ccc(C4(C(=O)O)CC4)cc3)cc2)c1Nc1ccnc(-c2ccccc2)c1 [Compound 1-111, 1-{4′-[3-Methyl-4-(2-phenyl-pyridin-4-ylamino)-isoxazol-5-yl]-biphenyl-4-yl}-cyclopropanecarboxylic acid]
< 300	COc1ncccc1-c1cccc(Nc2c(C)noc2-c2ccc(-c3ccc(C4(C(=O)O)CC4)cc3)cc2)c1 [Compound 1-89, 1-(4′-{4-[3-(2-Methoxy-pyridin-3-yl)-phenylamino]-3-methyl-isoxazol-5-yl}-biphenyl-4-yl)-cyclopropanecarboxylic acid]
< 300	Cc1noc(-c2ccc(-c3ccc(C4(C(=O)O)CC4)cc3)cc2)c1Nc1cccc(Cc2cccc(F)c2)n1 [Compound 1-85, 1-(4′-{4-[6-(3-Fluoro-benzyl)-pyridin-2-ylamino]-3-methyl-isoxazol-5-yl}-biphenyl-4-yl)-cyclopropanecarboxylic acid]
< 300	Cc1noc(-c2ccc(-c3ccc(C4(C(=O)O)CC4)cc3)cc2)c1Nc1cccc(OCc2ccccc2)n1 [Compound 1-125, 1-{4′-[4-(6-Benzyloxy-pyridin-2-ylamino)-3-methyl-isoxazol-5-yl]-biphenyl-4-yl}-cyclopropanecarboxylic acid]
< 300	Cc1noc(-c2ccc(-c3ccc(CCC(=O)O)cc3)cc2)c1C(O)c1cn(Cc2ccccc2)nn1 (stereo not drawn) [Compound 1-49, 3-(4′-{4-[(1-Benzyl-1H-[1,2,3]triazol-4-yl)-hydroxy-methyl]-3-methyl-isoxazol-5-yl}-biphenyl-4-yl)-propionic acid]
< 300	Cc1noc(-c2ccc(-c3ccc(C4(C(=O)O)CC4)cc3)cc2)c1Nc1cccc(-c2ccccc2Cl)n1 [Compound 1-109, 1-(4′-{4-[6-(2-Chloro-phenyl)-pyridin-2-ylamino]-3-methyl-isoxazol-5-yl}-biphenyl-4-yl)-cyclopropanecarboxylic acid]
> 50000	Cc1noc(-c2ccc(-c3ccc(C4(C(=O)O)CC4)cc3)cc2)c1C(NS(C)(=O)=O)c1cn(Cc2ccccc2)nn1 (stereo not drawn) [Compound 1-47, 1-(4′-{4-[(1-Benzyl-1H-[1,2,3]triazol-4-yl)-methanesulfonylamino-methyl]-3-methyl-isoxazol-5-yl}-biphenyl-4-yl)-cyclopropanecarboxylic acid]
< 300	Cc1noc(-c2ccc(-c3ccc(C4(C(=O)O)CC4)cc3)cc2)c1C(O)c1cn(Cc2cccc(Cl)c2)nn1 (stereo not drawn) [Compound 1-57, 1-[4′-(4-{[1-(3-Chloro-benzyl)-1H-[1,2,3]triazol-4-yl]-hydroxy-methyl}-3-methyl-isoxazol-5-yl)-biphenyl-4-yl]-cyclopropanecarboxylic acid]
< 300	COc1cccc(-c2cccc(Nc3c(C)noc3-c3ccc(-c4ccc(C5(C(=O)O)CC5)cc4)cc3)n2)c1 [Compound 1-88, 1-(4′-{4-[6-(3-Methoxy-phenyl)-pyridin-2-ylamino]-3-methyl-isoxazol-5-yl}-biphenyl-4-yl)-cyclopropanecarboxylic acid]
300 to 1000	Cc1noc(-c2ccc(-c3ccc(C4(C(=O)O)CC4)cc3)cc2)c1C1CC1C(=O)N(C)[C@H](C)c1ccccc1 (single isomer, unassigned) [Compound 1-26]
< 300	Cc1noc(-c2ccc(-c3ccc(C4(C(=O)O)CC4)cc3)cc2)c1Nc1cccc(Oc2ccccc2)n1 [Compound 1-79, 1-{4′-[3-Methyl-4-(6-phenoxy-pyridin-2-ylamino)-isoxazol-5-yl]-biphenyl-4-yl}-cyclopropanecarboxylic acid]
< 300	Cc1noc(-c2ccc(-c3ccc(C4(C(=O)O)CC4)cc3)cc2)c1Nc1cccc(Cc2ccccc2)n1 [Compound 1-73, 1-{4′-[4-(6-Benzyl-pyridin-2-ylamino)-3-methyl-isoxazol-5-yl]-biphenyl-4-yl}-cyclopropanecarboxylic acid]
